Drawing on BindingDB's records for doi:10.1021/jm0001976 (Merck Research Laboratories, 2000), this text covers IC50 for four compounds.

pIC50: −log10 of the molar value.

For the assay, the target named is Histone deacetylase (Eimeria tenella). The assay is described as follows: Tested for Histone deacetylase enzyme inhibition assay using Eimeria tenella extract.
Turning to `CCC(=O)CCCCC[C@@H]1NC(=O)[C@H]2CCCCN2C(=O)[C@H]([C@@H](C)CC)NC(=O)[C@H](c2cn(OC)c3ccccc3c2=O)NC1=O`, the negative logarithm of the IC50 (pIC50) (commonly the IC50 on a negative log10 scale, so that one unit is a factor of ten) was 8.42.
With `CCC(=O)CCCCC[C@@H]1NC(=O)[C@H]2CCCCN2C(=O)[C@H]([C@@H](C)CC)NC(=O)[C@H](c2cn(CC)c3ccccc3c2=O)NC1=O` the figure was 7.96; with `CCC(=O)CCCCC[C@@H]1NC(=O)[C@H]2CCCCN2C(=O)[C@H]([C@@H](C)CC)NC(=O)[C@H](c2cn(C)c3ccccc3c2=O)NC1=O`, 8.05.
For `CCCn1cc([C@@H]2NC(=O)[C@H](CCCCCC(=O)CC)NC(=O)[C@H]3CCCCN3C(=O)[C@H]([C@@H](C)CC)NC2=O)c(=O)c2ccccc21` the value was 7.55.
